Like-named read-outs stand apart in the source and are kept apart here.
B1: IFN-γ: interferon-γ, used at 100 U/ml for 72 h to induce immunoproteasome expression (protein, UniProt P01579 24-161, looked up)
Interferon gamma: QDPYVKEAENLKKYFNAGHSDVADNGTLFLGILKNWKEESDRKIMQSQIVSFYFKLFKNFKDDQSIQKSVETIKEDMNVKFFNSNKKKRDDFEKLTNYSVTDLNVQRKAIHELIQVMAELSPAAKTGKRKRSQMLFRG

Experiments:
[1] = system: caspase-3 activity in CML cell lines and primary samples; assay: Caspase-3 activity; format: cell-based; details: pulse treatment 1 h at IC50 doses
CML cell lines = assay: Cell viability of CML cell lines; format: cell-based; details: read-out: IC50, viability
[2] = system: A549 lung carcinoma cell line; assay: Proliferation of A549 cells with or without IFN-γ; format: cell-based; details: Homo sapiens
K562 cells = assay: Proliferation of K562 cells with or without IFN-γ; format: cell-based; details: Homo sapiens
NBM CD34+38- cells = assay: Viability of normal bone marrow CD34+38- cells; format: cell-based, human; details: 50 nM for 1 h, then drug-free medium 24 h
ABI 1/2 = assay: Western blot of ABI 1/2 levels after carfilzomib; format: cell-based; details: carfilzomib at IC50 levels; cell lines and primary CD34+38- enriched cells
CML CD34+ cells = assay: LTC-IC assay, CML CD34+ cells; format: cell-based, human; details: pulsed 1 h with 50 nM
[3] = system: STAT5 or PI3K signaling pathways; assay: Western blot of STAT5 and PI3K signaling after carfilzomib; format: cell-based; details: carfilzomib at IC50 doses, 1 h pulse, fresh medium 24 h
CML CD34+38- cells = assay: Viability of CML CD34+38- cells; format: cell-based, human; details: 50 nM for 1 h, then drug-free medium 24 h
LAMA84S cells = assay: Proliferation of LAMA84S cells with or without LMP7 siRNA; format: cell-based; details: Homo sapiens, 24 h, read-out: IC50, proliferation, control LAMA84S, continuous exposure for 24 h
normal CD34+ cells (NBM) = assay: LTC-IC assay, normal CD34+ cells; format: cell-based, human; details: pulsed 1 h with 50 nM
KCL22S cells = assay: Proliferation of KCL22S cells with or without LMP7 siRNA; format: cell-based; details: Homo sapiens, 24 h, read-out: IC50, proliferation, control KCL22S, continuous exposure for 24 h
[4] = system: LMP7 expression in K562 cells; assay: Induction of LMP7 expression by IFN-γ in K562 cells; format: cell-based; details: 100 U/ml IFN-γ for 72 h
[5] = system: LMP7 expression in A549 cells; assay: Induction of LMP7 expression by IFN-γ in A549 cells; format: cell-based; details: 100 U/ml IFN-γ for 72 h

Row | Molecule | caspase-3 activity [1] | IC50 (CML cell lines) | IC50 ([2]; A549, 24 h, read-out: IC50, proliferation) | IC50 ([2]; A549, read-out: IC50, proliferation) | IC50 (K562 cells; K562, 24 h, read-out: IC50, proliferation) | IC50 (K562 cells; K562, read-out: IC50, proliferation) | viability reduced by (NBM CD34+38- cells) | increased expression of ABI 1/2 (ABI 1/2) | colony formation reduced by (CML CD34+ cells) | effect on STAT5 or PI3K signaling pathways [3] | viability reduced by (CML CD34+38- cells) | IC50 (LAMA84S cells) | colony formation reduced by (normal CD34+ cells (NBM)) | IC50 (KCL22S cells) | increase in the expression of LMP7 [4] | increase in the expression of LMP7 [5]
1 | CC(C)C[C@H](NC(=O)[C@H](CCc1ccccc1)NC(=O)CN1CCOCC1)C(=O)N[C@@H](Cc1ccccc1)C(=O)N[C@@H](CC(C)C)C(=O)[C@@]1(C)CO1 [carfilzomib] | increase in caspase-3 activity | 20 to 79 nM | 92 nM | 10 nM | 608 nM | 179 nM | 19±2% | 2.2–6.8 fold | 58±11% | no effect | 39±1% | 7 nM | 44±7% | 5 nM | – | –
2 | B1 | – | – | – | – | – | – | – | – | – | – | – | – | – | – | fourfold | 10 fold
